Reference: US8563556B2, “Crystalline forms and two solvated forms of 4-amino-5-fluoro-3-[5-(4-methylpiperazin-1-yl)-1H-benzimidazol-2-yl]quinolin-2(1H)-one lactic acid salts” (Novartis AG, priority 2008, dated 2013)
Structures can show the parent of a compound that is named as a salt. Where two headings read alike, the source gives them in different places.

Legend:
[1] = Solubility of crystalline forms in solvents; assay type: physicochemical; conditions: for Solubility, Butanol: solvent butanol
[2] = Heat of solution in water at 25° C.; assay type: physicochemical

| Structure (SMILES) | Solubility, Acetone ([1]; solvent acetone, temperature not given) | Solubility, Butanol ([1]; temperature not given) | Solubility, Ethanol ([1]; solvent ethanol, temperature not given) | Solubility, Isopropanol ([1]; solvent isopropanol, temperature not given) | Solubility, Water ([1]; solvent water, temperature not given) | Heat of solution in water (endothermic) [2] | solubility ([1]; acetone, organic solvent or mixture, solvent acetone, temperature not given, read-out: Solubility, Acetone) | solubility ([1]; ethanol, organic solvent or mixture, solvent ethanol, temperature not given, read-out: Solubility, Ethanol) | solubility ([1]; isopropanol, organic solvent or mixture, solvent isopropanol, temperature not given, read-out: Solubility, Isopropanol) | solubility ([1]; water, solvent water, temperature not given, read-out: Solubility, Water) | Heat of solution in water (endothermic) ([2]; listed as Form B) | solubility ([1]; 0.1 N HCl, 25 °C, simulated gastric fluid, HCl 0.1N, 25° C., read-out: Solubility at 25° C., HCl 0.1N) | solubility ([1]; ethanol, 25 °C, organic solvent or mixture, ethanol, 25° C., read-out: Solubility at 25° C., ethanol) | Solubility at 25° C., water ([1]; water, 25° C.) |
| --- | --- | --- | --- | --- | --- | --- | --- | --- | --- | --- | --- | --- | --- | --- |
| CN1CCN(c2ccc3nc(-c4c(N)c5c(F)cccc5[nH]c4=O)[nH]c3c2)CC1 [Anhydrous form A, 4-amino-5-fluoro-3-[5-(4-methylpiperazin-1-yl)-1H-benzimidazol-2-yl]quinolin-2(1H)-one lactic acid salt] | 840 µg/mL | 950 µg/mL | 840 µg/mL | 160 µg/mL | 107000 µg/mL | 1.1 kcal/mol |  |  |  |  |  |  |  |  |
| CN1CCN(c2ccc3nc(-c4c(N)c5c(F)cccc5[nH]c4=O)[nH]c3c2)CC1 [Anhydrous form II, 4-Amino-5-fluoro-3-[5-(4-methylpiperazin-1-yl)-1H-benzimidazol-2-yl]quinolin-2(1H)-one lactate anhydrous form II] |  | 340 µg/mL |  |  |  |  | 510 µg/mL | 710 µg/mL | 80 µg/mL | 68000 µg/mL | 2.2 kcal/mol |  |  |  |
| CN1CCN(c2ccc3nc(-c4c(N)c5c(F)cccc5[nH]c4=O)[nH]c3c2)CC1 [hemi-pentahydrate, 4-Amino-5-fluoro-3-[5-(4-methylpiperazin-1-yl)-1H-benzimidazol-2-yl]quinolin-2(1H)-one lactate hemi-pentahydrate] |  |  |  |  |  | 7.17 kcal/mol |  |  |  |  |  | 55000 µg/mL | 2000 µg/mL | 6200 µg/mL |
